Reference: PMC6933783 (ACS Omega, 2019)

Legend:
MAO-B = biological target: T1, MAO-B (Homo sapiens, UniProt P27338); assay: Reversibility of MAO-B inhibition; type: biochemical; conditions: dilution assay, 30 min preincubation, Figure S3
T1 sequence (P27338 1-520): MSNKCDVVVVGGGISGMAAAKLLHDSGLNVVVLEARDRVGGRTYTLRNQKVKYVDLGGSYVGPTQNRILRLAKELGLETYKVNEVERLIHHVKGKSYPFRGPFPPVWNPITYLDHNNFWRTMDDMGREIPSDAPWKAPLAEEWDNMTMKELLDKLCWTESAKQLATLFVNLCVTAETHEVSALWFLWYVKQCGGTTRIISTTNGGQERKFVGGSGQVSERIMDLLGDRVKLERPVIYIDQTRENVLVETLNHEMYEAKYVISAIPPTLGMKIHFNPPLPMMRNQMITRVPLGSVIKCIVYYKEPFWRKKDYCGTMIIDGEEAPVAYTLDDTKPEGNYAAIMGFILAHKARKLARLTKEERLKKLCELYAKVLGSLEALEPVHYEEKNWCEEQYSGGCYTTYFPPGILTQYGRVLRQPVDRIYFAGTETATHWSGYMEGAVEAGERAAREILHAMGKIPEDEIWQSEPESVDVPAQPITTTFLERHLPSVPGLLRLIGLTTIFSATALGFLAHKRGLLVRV

[1] = biological target: human acetylcholinesterase (AChE) (Homo sapiens, UniProt P22303); assay: Cholinesterase assay; type: biochemical; conditions: for αKi ± SE, AChE: uncompetitive contribution, Lineweaver-Burk plots
human acetylcholinesterase (AChE), sequence (P22303 32-617 isoform P22303-2 limits assumed): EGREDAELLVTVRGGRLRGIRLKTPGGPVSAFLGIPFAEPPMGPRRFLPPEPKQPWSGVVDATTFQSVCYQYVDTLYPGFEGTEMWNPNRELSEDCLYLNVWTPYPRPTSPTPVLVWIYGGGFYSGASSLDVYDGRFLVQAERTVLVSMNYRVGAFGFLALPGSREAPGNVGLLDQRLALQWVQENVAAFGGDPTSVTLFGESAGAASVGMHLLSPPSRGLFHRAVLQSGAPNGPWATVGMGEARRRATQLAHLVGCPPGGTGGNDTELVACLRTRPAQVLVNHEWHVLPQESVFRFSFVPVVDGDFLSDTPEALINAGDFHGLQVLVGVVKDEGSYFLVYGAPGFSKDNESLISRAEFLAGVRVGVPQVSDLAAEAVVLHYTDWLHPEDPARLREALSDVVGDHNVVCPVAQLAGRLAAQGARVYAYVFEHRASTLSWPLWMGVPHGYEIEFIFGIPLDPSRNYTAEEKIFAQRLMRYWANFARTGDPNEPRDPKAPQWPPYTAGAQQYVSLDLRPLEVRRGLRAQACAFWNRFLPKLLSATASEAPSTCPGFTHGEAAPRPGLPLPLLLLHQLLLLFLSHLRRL

| Structure (SMILES) | reversibility of MAO-B inhibition (MAO-B) | Ki [1] [µM] | αKi ± SE, AChE [1] [µM] |
| --- | --- | --- | --- |
| O=c1ccoc2ccc(OCCCCN3CCCCC3)cc12 [Compound 7, 6-(4-(piperidin-1-yl)butoxy)-4H-chromen-4-one] | reversibility of MAO-B inhibition was exemplarily demonstrated |  |  |
| C[C@@H]1CCCN1CCCCOc1ccc2occc(=O)c2c1 [Compound 27] |  | 9.23 ± 5.01 | 19.0 ± 4.1 |
| CN1CCN(CCCCOc2ccc3occc(=O)c3c2)CC1 [Compound 15, 6-(4-(4-Methylpiperazin-1-yl)butoxy)-4H-chromen-4-one] |  | 2.06 ± 0.56 | 5.36 ± 0.70 |
